Measured values reported in patent US20230390319A1, “INTERFERON GENE STIMULATOR COMPOSITION COMPRISING INDOLIZINE DERIVATIVE AS ACTIVE INGREDIENT” (AJOU UNIVERSITY INDUSTRY-ACADEMIC COOPERATION FOUNDATION, priority 2020, published 2023).

Legend:
ISRE reporter signal = experiment: ISRE luciferase reporter assay, THP-1 cells co-treated with compound and cGAMP; type: cell-based, Human; settings: THP-1 cells, 20 μM of each compound, co-treated with cGAMP (1 μg/ml), 24 hours
Description: (§1) Human monocytic THP-1 wild-type (WT) and STING knockout (KO) cell lines were obtained from InvivoGen. Cells were cultured in 1×RPMI 1640 medium containing 10% fetal bovine serum (FBS, Hyclone), 2.05 mM L-glutamine (Hyclone) and 1% penicillin (Corning) in a humidified incubator at 37° C. under 5% CO2.
To confirm immune responses, THP-1 cells were placed in 384-well plates (Grenier), and treated with each compound and cGAMP (1 μg/ml), and after 24 hours, ISRE activity was analyzed. QUANTI-Luc assay (InvivoGen) was performed using the cell culture supernatant to confirm the luciferase reporter gene signal. Fluorescent signals were measured using a TECAN micro plate reader SPARK, and the results were normalized to DMSO control.
(§2) THP-1 cells were co-treated with each of 86 indolizine derivatives and a very small amount of cGAMP (1 μg/ml), the immune response of the THP-1 cells was examined by ISRE reporter assay, and the cytotoxicity of co-treatment was also evaluated (Table 1). All results were compared by normalization to the reporter assay results obtained by treatment with cGAMP alone. […] Thus, Compound 42 was used in subsequent experiments.

THP-1 cells = experiment: Cell viability assay (CellTiter Clo) in THP-1 cells; type: cell-based, Human; settings: THP-1 cells, 20 μM of each compound, co-treated with cGAMP (1 μg/ml)
Description: as §1
Cells were analyzed using CellTiter Clo (CTG, Promega). […] was measured using a TECAN micro plate reader SPARK. Results were normalized to DMSO control.
as §2

SMILES | Normalized RU (relative unit of ISRE reporter signal) (ISRE reporter signal) | Normalized cell viability (THP-1 cells)
O=C(c1ccc(C(F)(F)F)cc1)c1cc(-c2ccc(C(F)(F)F)cc2)c2cc(C(F)(F)F)ccn12 [Compound 1] | 1.46 | 1.10
CC(=O)c1ccc(-c2cc(C(=O)c3ccc(C(F)(F)F)cc3)n3ccc(C(F)(F)F)cc23)cc1 [Compound 2] | 1.42 | 1.03
O=C(c1ccc(C(F)(F)F)cc1)c1cc(-c2ccccc2)c2cc(C(F)(F)F)ccn12 [Compound 3] | 1.40 | 1.04
COc1ccc(-c2cc(C(=O)c3ccc(C(F)(F)F)cc3)n3ccc(C(F)(F)F)cc23)cc1 [Compound 4] | 1.33 | 1.05
CN(C)c1ccc(-c2cc(C(=O)c3ccc(C(F)(F)F)cc3)n3ccc(C(F)(F)F)cc23)cc1 [Compound 5] | 1.58 | 1.05
O=C(c1ccccc1)c1cc(-c2ccc(C(F)(F)F)cc2)c2cc(C(F)(F)F)ccn12 [Compound 6] | 1.38 | 1.19
CC(=O)c1ccc(-c2cc(C(=O)c3ccccc3)n3ccc(C(F)(F)F)cc23)cc1 [Compound 7] | 1.54 | 1.20
O=C(c1ccccc1)c1cc(-c2ccccc2)c2cc(C(F)(F)F)ccn12 [Compound 8] | 1.18 | 1.06
COc1ccc(-c2cc(C(=O)c3ccccc3)n3ccc(C(F)(F)F)cc23)cc1 [Compound 9] | 1.21 | 1.03
CN(C)c1ccc(-c2cc(C(=O)c3ccccc3)n3ccc(C(F)(F)F)cc23)cc1 [Compound 10] | 1.67 | 1.21
COc1ccc(C(=O)c2cc(-c3ccc(C(F)(F)F)cc3)c3cc(C(F)(F)F)ccn23)cc1 [Compound 11] | 2.02 | 1.16
COc1ccc(C(=O)c2cc(-c3ccc(C(C)=O)cc3)c3cc(C(F)(F)F)ccn23)cc1 [Compound 12] | 1.31 | 1.25
COc1ccc(C(=O)c2cc(-c3ccccc3)c3cc(C(F)(F)F)ccn23)cc1 [Compound 13] | 1.62 | 1.14
COc1ccc(C(=O)c2cc(-c3ccc(OC)cc3)c3cc(C(F)(F)F)ccn23)cc1 [Compound 14] | 1.48 | 1.30
COc1ccc(C(=O)c2cc(-c3ccc(N(C)C)cc3)c3cc(C(F)(F)F)ccn23)cc1 [Compound 15] | 1.18 | 1.17
CCN(CC)c1ccc(C(=O)c2cc(-c3ccc(C(F)(F)F)cc3)c3cc(C(F)(F)F)ccn23)cc1 [Compound 16] | 1.66 | 1.22
CCN(CC)c1ccc(C(=O)c2cc(-c3ccc(C(C)=O)cc3)c3cc(C(F)(F)F)ccn23)cc1 [Compound 17] | 1.45 | 1.29
CCN(CC)c1ccc(C(=O)c2cc(-c3ccccc3)c3cc(C(F)(F)F)ccn23)cc1 [Compound 18] | 1.85 | 1.17
CCN(CC)c1ccc(C(=O)c2cc(-c3ccc(OC)cc3)c3cc(C(F)(F)F)ccn23)cc1 [Compound 19] | 1.58 | 1.29

SMILES | Normalized RU (relative unit of ISRE reporter signal) (ISRE reporter signal) | Normalized cell viability (THP-1 cells)
CCN(CC)c1ccc(C(=O)c2cc(-c3ccc(N(C)C)cc3)c3cc(C(F)(F)F)ccn23)cc1 [Compound 20] | 1.46 | 1.05
CC(=O)c1ccn2c(C(=O)c3ccc(C(F)(F)F)cc3)cc(-c3ccc(C(F)(F)F)cc3)c2c1 [Compound 21] | 1.86 | 1.19
CC(=O)c1ccc(-c2cc(C(=O)c3ccc(C(F)(F)F)cc3)n3ccc(C(C)=O)cc23)cc1 [Compound 22] | 1.31 | 1.09
CC(=O)c1ccn2c(C(=O)c3ccc(C(F)(F)F)cc3)cc(-c3ccccc3)c2c1 [Compound 23] | 1.23 | 1.11
COc1ccc(-c2cc(C(=O)c3ccc(C(F)(F)F)cc3)n3ccc(C(C)=O)cc23)cc1 [Compound 24] | 1.33 | 1.21
CC(=O)c1ccn2c(C(=O)c3ccc(C(F)(F)F)cc3)cc(-c3ccc(N(C)C)cc3)c2c1 [Compound 25] | 1.75 | 1.12
CC(=O)c1ccn2c(C(=O)c3ccccc3)cc(-c3ccc(C(F)(F)F)cc3)c2c1 [Compound 26] | 1.60 | 1.21
CC(=O)c1ccc(-c2cc(C(=O)c3ccccc3)n3ccc(C(C)=O)cc23)cc1 [Compound 27] | 1.18 | 1.17
CC(=O)c1ccn2c(C(=O)c3ccccc3)cc(-c3ccccc3)c2c1 [Compound 28] | 1.69 | 1.13
COc1ccc(-c2cc(C(=O)c3ccccc3)n3ccc(C(C)=O)cc23)cc1 [Compound 29] | 1.00 | 1.20
CC(=O)c1ccn2c(C(=O)c3ccccc3)cc(-c3ccc(N(C)C)cc3)c2c1 [Compound 30] | 1.33 | 1.26
COc1ccc(C(=O)c2cc(-c3ccc(C(F)(F)F)cc3)c3cc(C(C)=O)ccn23)cc1 [Compound 31] | 3.42 | 1.33
COc1ccc(C(=O)c2cc(-c3ccc(C(C)=O)cc3)c3cc(C(C)=O)ccn23)cc1 [Compound 32] | 2.91 | 1.11
COc1ccc(C(=O)c2cc(-c3ccccc3)c3cc(C(C)=O)ccn23)cc1 [Compound 33] | 2.18 | 1.22
COc1ccc(C(=O)c2cc(-c3ccc(OC)cc3)c3cc(C(C)=O)ccn23)cc1 [Compound 34] | 1.52 | 1.26
COc1ccc(C(=O)c2cc(-c3ccc(N(C)C)cc3)c3cc(C(C)=O)ccn23)cc1 [Compound 35] | 2.22 | 1.26
CCN(CC)c1ccc(C(=O)c2cc(-c3ccc(C(F)(F)F)cc3)c3cc(C(C)=O)ccn23)cc1 [Compound 36] | 3.37 | 1.27
CCN(CC)c1ccc(C(=O)c2cc(-c3ccc(C(C)=O)cc3)c3cc(C(C)=O)ccn23)cc1 [Compound 37] | 1.62 | 1.25
CCN(CC)c1ccc(C(=O)c2cc(-c3ccccc3)c3cc(C(C)=O)ccn23)cc1 [Compound 38] | 1.77 | 1.34
